Columns and labels:
[1] = Amorphous solubility by slow addition from organic stock, UV/scattering detection; type: physicochemical; settings: for solubility: kinetic from dmso stock
Source text: Solubility: Generally, the solubility of an amorphous form is higher than that of the corresponding crystal form, due to the lack of crystalline lattice forces in the amorphous state. Solubility of the amorphous form of Compound A was studied by slow addition of the amorphous form from an organic stock solution into the pH 6.5 phosphate-buffered saline (PBS) solution or 0.5% wt simulated intestinal fluid (SIF) in pH 6.5 PBS. When the amorphous solubility is reached, a drug-rich phase forms which typically scatters light (e.g., liquid-liquid phase separation or LLPS), which can be detected by scattering of UV/Visible light and/or by dynamic light scattering (DLS).
No scattering event prior to crystallization was observed.

[2] = Gastric-to-intestinal buffer (G-IB) transfer dissolution test; type: physicochemical; settings: 0.5% SIF in PBS pH 6.5, dose 150 μgA/mL
Protocol: Dissolution: The crystalline Compound A and the five SDD compositions (A-E from Example 4) is were tested in a 2-stage dissolution test designed to evaluate dissolution rate as well as inhibition of crystallization on transfer from simulated gastric to simulated intestinal media. Additionally, SDD composition E was also tested with additional HPMCAS-HF powder at a ratio of 1:1 SDD/HPMCAS-HF (SDD composition F).
For the gastric-to-intestinal buffer (G-IB) transfer dissolution test, pH 2 (“gastric”) media was added to each sample at a target dose concentration of 300 μgA/mL. After 30 minutes of exposure to gastric media, concentrated simulated intestinal buffer (TB) is added to reach a final composition of 0.5% SIF in PBS, pH 6.5 at half the dose concentration (150 μgA/mL). The concentration was monitored by U fiber optic probes in situ as well as being assessed by either microcentrifugation (15,800×g) or ultracentrifugation (380,000×g).
The microcentrifuge separates the precipitate (undissolved drug) and total solubilized drug Total solubilized drug consists of three solubilized species: freely solubilized drug (“free drug”), drug associated with bile salt micelles (“micelle bound drug”), and drug in small aggregate roughly 50-300 nm in size (“colloidal drug”). The ultracentrifuge further separates the colloidal drug and the supernatant contains only free drug and micelle bound drug. […]

PC-3 = PC-3 prostate cancer xenograft model; type: in vivo; settings: PC-3 (non functional AR), intact male mice, 15 mg/kg, Solution, qd28
Protocol: (§1) Compound A's activity was measured in a variety of castrate-sensitive and castrate-resistant prostate cancer (CRPC) xenograft models (Table 32).

LNCaP95 = LNCaP95 prostate cancer xenograft model; type: in vivo; settings: LNCaP95 (high level AR-V7), castrated male mice, 15 mg/kg, Solution, qd24
Protocol: as §1

VCaP tumors = experiment: VCaP prostate cancer xenograft model; type: in vivo, SCID Beige male mice; settings: VCaP (amplified AR, some AR-V7), castrated male mice, 15 mg/kg, Solution, qd24
HID28 = experiment: Enzalutamide resistant patient-derived xenograft (PDX) model HID28; type: in vivo, nude mice; settings: HID28 PDX (AR+ PSA+), castrated male mice, 15 mg/kg, Solution, qd28
Protocol: as §1
For example, intact male nude mice were engrafted with HID28 tumor fragments and once tumors reached ˜150 mm^3 the mice were castrated. The mice were enrolled in the experiment once the tumors started to regrow, 10 days post-castration. Compound A was tested in the HID28 PDX model at 60 mg/kg, QD for 28 days using SDD formulation with HPMCAS-H in 0.5% Methocel A4M in water.
Mean tumor volume in castrated nude mice bearing enzalutamide resistant patient-derived xenograft (PDX) model HID28 was measured after oral treatment with solid dispersion composition of Compound A or enzalutamide for 28 days (n=6-7 per group) is shown in FIG. 16B.

LNCaP = LNCaP prostate cancer xenograft model; type: in vivo; settings: LNCaP (AR FL), castrated male mice, 30 mg/kg, Solution, qd24
Protocol: as §1

With `CC(C)(c1ccc(OCc2ccnc(NS(C)(=O)=O)n2)cc1)c1cc(Cl)c(OCCCl)c(C#N)c1` [amorphous form of Compound A, N-(4-((4-(2-(3-chloro-4-(2-chloroethoxy)-5-cyanophenyl)propan-2-yl)phenoxy)methyl)pyrimidin-2-yl)methanesulfonamide] the solubility ([1]; 0.5% wt simulated intestinal fluid (SIF) in pH 6.5 PBS, fassgf or other biorelevant, 0.5% SIF (pH 6.5)) was over 25 µg/mL, the solubility ([1]; pH 6.5 phosphate-buffered saline (PBS), aqueous buffer, pH 6.5 PBS) was over 2.5 µg/mL and the “amorphous solubility relative to crystalline solubility” value ([1]; simulated intestinal media) was “at least 20 ×”.

In the case of `CC(C)(c1ccc(OCc2ccnc(NS(C)(=O)=O)n2)cc1)c1cc(Cl)c(OCCCl)c(C#N)c1` [Crystalline Compound A, N-(4-((4-(2-(3-chloro-4-(2-chloroethoxy)-5-cyanophenyl)propan-2-yl)phenoxy)methyl)pyrimidin-2-yl)methanesulfonamide], the “Concentration, IB (90 min)” value [2] is reported as 7 μgA/mL.

In the case of `CNC(=O)c1ccc(N2C(=S)N(c3ccc(C#N)c(C(F)(F)F)c3)C(=O)C2(C)C)cc1F` [Enzalutamide, enzalutamide, reference compound], the “TGI (Tumor Growth Inhibition)” value (PC-3) is reported as 0%, the “TGI (Tumor Growth Inhibition)” value (LNCaP95) is reported as under 0% and the “TGI (Tumor Growth Inhibition)” value (VCaP tumors) is reported as 66%. The “TGI (Tumor Growth Inhibition)” value (HID28) was under 0% and the “TGI (Tumor Growth Inhibition)” value (LNCaP) was over 100%.

— patent US20240207264A1, “PHARMACEUTICAL COMPOSITIONS COMPRISING INHIBITORS OF THE ANDROGEN RECEPTOR AND USES THEREOF” (ESSA PHARMA INC., priority 2021, published 2024)
